Structures can show the parent of a compound that is named as a salt. Where two headings read alike, the source gives them in different places.
Experiments:
Factor Xa = biological target: T1, Factor Xa (Bos taurus, UniProt P00743); experiment: Blood coagulation inhibition: inhibition of Factor Xa in the Chromogen Substrate Test; format: biochemical
T1 sequence (P00743 41-180 limits assumed): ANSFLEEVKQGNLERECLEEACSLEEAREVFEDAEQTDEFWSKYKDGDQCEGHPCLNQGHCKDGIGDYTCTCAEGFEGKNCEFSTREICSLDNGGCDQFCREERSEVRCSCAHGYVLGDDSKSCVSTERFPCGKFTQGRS
Procedure: (§1) Inhibition of thrombin or Factor Xa in the Chromogen Substrate Test (Teien et al., Thrombosis Research 10, 399-410 (1977)): The determination was effected in a Cobas-Bio centrifugal automatic spectrophotometer. The buffer solution used consisted of 50 mM Tris buffer, 180 mM NaCl, 7.5 mM EDTA Na2, 1% PEG 6000 and 0.02% Tween 80, pH 8.4. The test solution consisted of 50 μl of buffer, 30 μl of antithombin III (1U/ml, Kabi Diagnostica) and 20 μl of plasma which contained various concentrations of test compounds. 30 μl of sample solution and 20 μl of water with 180 μl of thrombin (1U/ml, Thrombin Reagent Roche Basle) were added to the test cuvette in the automatic analyzer. After incubation at 37° C. for 240 seconds, 60 μl of S-2238 (H-D-Phe-Pip-Arg-NH.pNA, Kabi Diagnostica, Mondal, Sweden, 0.75 mM in water) and 20 μl of water were added. The liberation of pNA (p-nitro-aniline) was followed during 60 seconds at 405 nm in 10 second intervals in comparison to water as the blank.
The inhibition of Factor Xa was measured in the same manner using a solution of Factor Xa (2.8 nkat/ml and 2 mM S-2222 (Bz-CO-Ile-Glu-Arg-NH.pNA, Kabi Diagnostica) in water in place of thrombin and, respectively, S-2238.

thrombin = biological target: T2, thrombin (Homo sapiens, UniProt P00734); format: biochemical
T2 construct: purchased Roche Basle (Thrombin Reagent)
Procedure: as §1

rat smooth muscle cells = experiment: Antiproliferative activity (ri, relative to heparin) in rat smooth muscle cells; format: cell-based; set-up: key: growth inhibition relative to heparin at 100 μg/ml, same experiment; details: 100 μg/ml, 48 h, relative to heparin at 100 μg/ml in the same experiment
Procedure: Antiproliferative Activity
The antiproliferative activity of a substance is expressed as the ri value which is a comparative value to the corresponding activity of heparin and which was determined in cell cultures as follows: rat smooth muscle cells were applied to cell culture plates in a density of 8×10^3 cells/well (medium: DMEM with 10% FCS. Cultivation at 37° C. and 5% CO2). After 4 hours, the number of adhered cells was determined and the substances to be tested (100 μg/ml, dissolved in H2 O) were added. […] Subsequently, the cells were incubated for 48 h. and thereafter the cell count was determined once more.
The inhibition i of the cell growth, that is, the reduction in the growth rate of the cells in percent compared to the control, was calculated from these values. [formula] the growth rate μbeing calculated as [formula] in which Z is the number of cells and d is the time in days.
Finally, ri --the relative inhibitory activity--which expresses the activity of a substance (at 100 μg/ml) in comparison to the activity of heparin in the same concentration in the same experiment, was calculated: [formula] Blood Coagulation Inhibition

[1] = with antithrombin III and plasma, S-2222 substrate; read-out: Anticoagulative Activity IC50 Factor Xa
[2] = with antithrombin III and plasma, S-2238 substrate, 37° C., pH 8.4; read-out: Anticoagulative Activity IC50 Thrombin

Structure (SMILES)	IC50 (Factor Xa; [1]) [µM]	IC50 (thrombin; [2]) [µM]	Antiproliferative Activity ri (relative inhibitory activity versus heparin) (rat smooth muscle cells)	IC50 (Factor Xa; read-out: Anticoagulative Activity IC50 Factor Xa; with antithrombin III and plasma, S-2222 substrate) [µM]	IC50 (thrombin; read-out: Anticoagulative Activity IC50 Thrombin; with antithrombin III and plasma, S-2238 substrate, 37° C., pH 8.4) [µM]
O=C(CO[C@@H]1[C@@H](NC(=O)c2ccc(-c3ccc(C(=O)N[C@H]4[C@@H](OCc5ccccc5)O[C@@H]5CO[C@@H](c6ccccc6)O[C@H]5[C@@H]4OCC(=O)N[C@H]4[C@@H](OCc5ccccc5)O[C@H](COS(=O)(=O)O)[C@@H](OS(=O)(=O)O)[C@@H]4OS(=O)(=O)O)cc3)cc2)[C@@H](OCc2ccccc2)O[C@@H]2CO[C@@H](c3ccccc3)O[C@@H]12)N[C@H]1[C@@H](OCc2ccccc2)O[C@H](COS(=O)(=O)O)[C@@H](OS(=O)(=O)O)[C@@H]1OS(=O)(=O)O [Example 11, (Biphenyl-4,4'-dicarboxylic acid) bis-[[benzyl 3-O-[(benzyl 2-desoxy-2,3,4-tri-O-sulfo-a-D-glucopyranoside)-2-yl-carbamoylmethyl]-4,6-(R)-O-benzylidene-2-desoxy-a-D-glucopyranosid-2-yl]-amide] hexasodium salt]	> 495	> 495	1.7		
O=C(N[C@H]1[C@@H](OCc2ccccc2)O[C@H](CNC(=O)[C@H](OS(=O)(=O)O)[C@@H](OS(=O)(=O)O)[C@H](OS(=O)(=O)O)[C@@H](COS(=O)(=O)O)OS(=O)(=O)O)[C@@H](OS(=O)(=O)O)[C@@H]1OS(=O)(=O)O)c1ccc(/C=C\c2ccc(C(=O)N[C@H]3[C@@H](OCc4ccccc4)O[C@H](CNC(=O)[C@H](OS(=O)(=O)O)[C@@H](OS(=O)(=O)O)[C@H](OS(=O)(=O)O)[C@@H](COS(=O)(=O)O)OS(=O)(=O)O)[C@@H](OS(=O)(=O)O)[C@@H]3OS(=O)(=O)O)cc2)cc1 [Example 23, (Z)-stilbene-4,4'-dicarboxylic acid bis-[[benzyl 2,6-didesoxy-6-(2,3,4,5,6-penta-O-sulfo-D-gluconoylamino)-3,4-di-O-sulfo-α-D-glucopyranosid-2-yl]-amide] tetradecasodium salt]	> 445	> 445	1.8		
O=C(NC[C@H]1O[C@H](OCc2ccccc2)[C@H](NC(=O)c2ccc(NC[C@H](OS(=O)(=O)O)[C@@H](OS(=O)(=O)O)[C@H](OS(=O)(=O)O)[C@@H](COS(=O)(=O)O)OS(=O)(=O)O)c([N+](=O)[O-])c2)[C@@H](OS(=O)(=O)O)[C@@H]1OS(=O)(=O)O)c1cc(C(=O)NC[C@H]2O[C@H](OCc3ccccc3)[C@H](NC(=O)c3ccc(NC[C@H](OS(=O)(=O)O)[C@@H](OS(=O)(=O)O)[C@H](OS(=O)(=O)O)[C@@H](COS(=O)(=O)O)OS(=O)(=O)O)c([N+](=O)[O-])c3)[C@@H](OS(=O)(=O)O)[C@@H]2OS(=O)(=O)O)cc(C(=O)NC[C@H]2O[C@H](OCc3ccccc3)[C@H](NC(=O)c3ccc(NC[C@H](OS(=O)(=O)O)[C@@H](OS(=O)(=O)O)[C@H](OS(=O)(=O)O)[C@@H](COS(=O)(=O)O)OS(=O)(=O)O)c([N+](=O)[O-])c3)[C@@H](OS(=O)(=O)O)[C@@H]2OS(=O)(=O)O)c1 [Example 30, Benzene-1,3,5-tricarboxylic acid tris-[[benzyl 2,6-didesoxy-2-[4-(2,3,4,5,6-penta-O-sulfo-D-glucit-1-ylamino)-3-nitro-benzoylamino]-3,4-di-O-sulfo-a-D-glucopyranosid-6-yl]-amide] henicosasodium salt]			1.6	> 276	> 276
